{"source": "paper PMC7708037", "about": "“Targeting OGG1 arrests cancer cell proliferation by inducing replication stress” (Nucleic Acids Research, 2020)", "key": {"[1]": {"tested_on": "OGG1 substrate lesions in A3 cells", "test": "OGG1-modified Comet assay", "format": "cell-based, human", "conditions": "10 μM, 72 h", "description": "8-oxodG detection in genomic DNA through LC–MS/MS ([39]) and single-cell electrophoresis ([40]) were performed as described.\nFigure 5. Effect of TH5487 on DNA lesions, DNA damage markers and DNA replication. (A) 8-oxodG accumulation in A3 cells. A3 cells were treated with 20 mM KBrO3 for 1 h or with 10 μM TH5487 for the indicated times, and the amount of genomic 8-oxodG was quantified with LC-MS/MS. Data are average ±SD of five replicates from two independent experiments. (B) Comet assay. A3 cells were treated with 10 μM TH5487 for 72 h and strand-breaks and OGG1 substrate lesions were analyzed with the OGG1-modified Comet assay. Representative images of cells are shown. (C) Violin blot of Comet tail moment. Cells were treated as in B, and the tail moment of the cells were analyzed using blinded automatic analysis (n = 200 per condition from two independent experiments). The full line indicates median, and the dotted lines quartiles. (D) Violin blot of phosphorylated γH2AX intensity. A3 cells were treated with 0.1% DMSO or 10 μM TH5487 for the indicated times and stained for phosphorylated γH2AX. […] At least 33 000 nuclei per group were quantified from three independent experiments. […] At least 300 forks were scored per condition. Statistical significance was determined using unpaired, two-sided t-tests (**P < 0.01, ***P < 0.001 and ****P < 0.0001; ns, non-significant)."}, "[2]": {"tested_on": "MCM4 gene promoter in A3 cells", "test": "Oxidative DNA damage within MCM4 gene promoter (qPCR)", "format": "cell-based, human", "conditions": "10 μM, 72 h", "description": "We adapted the procedure described by O’Callaghan et al. ([46]) to measure oxidative DNA damage at the MCM4 gene promoter region. This is a qPCR method based on differences in PCR kinetics between DNA template digested by FPG and undigested DNA. We have modified the original protocol to incorporate another purified human OGG1 to quantify the accumulation of base lesions specific for OGG1, 8-oxoguanine. Conditions used for incubation were 200 ng of gDNA together with 2.4 μM of hOGG1 during 4 h. The quantitative real-time amplification of genomic DNA was performed as described by O’Callaghan et al. ([46]). Specific primers were used at a final concentration of 100 nM (promoterMCM4-F: 5′-GCTGTGATTGGTGAGGCCC -3′; promoterMCM4-R: 5′-CAAACCGCGAGACCCAGAG-3′) . Amplification cycling conditions were 10 min at 95°C, followed by 40 cycles of 95°C for 15 s and 60°C for 1 min. ΔCT method was run in an ABI quant studio 1 and all samples were loaded and analyzed in triplicate.\nFigure 6. TH5487 treatment induces a downregulation of DNA replication genes (A) Gene Set Enrichment analysis plot of the DNA Replication Gene Ontology Gene Set. […] Only genes with a mean normalized count >5 were analyzed. […] Statistical significance was determined using a two-sided unpaired t-test (ns, non-significant, *P < 0.05, **P < 0.01, ***P < 0.001 and ****P < 0.0001)."}}}
{"smiles": "O=C(Nc1ccc(I)cc1)N1CCC(n2c(=O)[nH]c3c(Br)cccc32)CC1", "note": "[TH5487]", "values": [{"measurement": "Increase in OGG1-induced tail length (Comet)", "setting": "[1]", "result": "~50", "unit": "%"}, {"measurement": "Oxidative DNA damage at SP1 binding motif of MCM4 promoter", "setting": "[2]", "result": "significant accumulation of oxidative DNA damage"}]}
